# According to paper PMC11161644, “An effective and rapidly degradable disinfectant from disinfection byproducts” (Nature Communications, 2024):
# “And” between values parts separate entries of the source, which are not always exact repeats. Identical values can stand only once. Like-named read-outs stand apart in the source and are kept apart here.
# Key:
# [1] = Degradation in seawater in darkness (pH 6.2, 7.2, 8.2); settings: seawater pH 8.2, darkness
# Description: To study the DBP degradation in seawater in darkness, a DBP was added at 10 mg L^−1 to 50 mL pretreated seawater (pH 8.2) in the quartz flasks. The flasks were wrapped with aluminum foil to simulate the dark condition. The samples were kept at 20 °C in darkness for 0‒120 h, during which the sample was adjusted to pH 6.2 and 7.2 or maintained at pH 8.2 by adding 4 mM phosphate buffer (pH 6.2, 7.2, and 8.2, respectively).
# For the DBP samples with and without sunlight, aliquots were taken at a specific reaction time. The sample aliquots were analyzed using Agilent high-performance liquid chromatography (HPLC) equipped with a Poroshell 120 EC-C18 column (4.6 × 150 mm, 4 µm particle size, Agilent) and a UV detector. The mobile phase, consisting of water (pre-adjusted to pH 2 with phosphoric acid) and acetonitrile at 50/50 (v/v), was applied at a flow rate of 1.0 mL min^−1. PCMX, 2,4-dihalophenols and 5-halosalicylic acids were detected at the wavelength of 230 nm. 2,5-Dihalohydroquinones and 2,6-DCQ were detected at the wavelength of 280 nm. All the degradation experiments were conducted in duplicate.
# S. aureus (ATCC 25923) = assay: Inactivation of S. aureus (contact time 5 min); format: cell-based, Staphylococcus aureus; settings: Staphylococcus aureus, ATCC25923, 5 min, dose 300 mg L-1, pH 7.2, contact time 5 min
# Description: (§1) The chemicals and reagents used are detailed in Supplementary Note 1. The bacteria E. coli (ATCC 25922) and S. aureus (ATCC 25923) were cultured aerobically in Luria-Bertani broth (Sigma-Aldrich) and Tryptone Soya broth (Oxoid), respectively, at 37 °C for 16 h. The fungus C. albicans (ATCC 14053) was aerobically cultured in Sabouraud Dextrose broth (Difco) at 37 °C for 24 h. The microorganism cells were harvested by centrifugation at 1200×g (10 min, 4 °C) and resuspended in phosphate-buffered saline (PBS, 10 mM, pH 7.2). The disinfection experiments were performed in PBS solutions (10 mM, pH 7.2) with an initial concentration of E. coli, S. aureus, or C. albicans of 10^6‒10^7 cells per milliliter. A contact time of 5 min was used in accordance with the recommended time range of 0.25–10 min by USEPA for surface disinfection. Preliminary tests were conducted to determine the appropriate range of DBP doses. The appropriate dose range was established when the lowest and highest doses could achieve <1-log and >3-log of microbial inactivation, respectively. Based on the preliminary results, a series of doses of DBPs were added to the cell suspensions at room temperature (22 ± 1 °C). After the contact time of 5 min, the microorganism cells were enumerated following a membrane filter method. Briefly, serial 10-fold dilutions were conducted for the disinfected samples and the control sample without disinfection. Each diluted suspension was subjected to filtration through 0.45-μm membrane, which was then placed on a petri dish. The Petri dishes containing E. coli, S. aureus, and C. albicans were incubated in m-FC medium (Becton Dickinson & Co) at 45 °C for 24 h, in Tryptone Soya broth at 37 °C for 24 h and in Sabouraud Dextrose broth at 37 °C for 24 h, respectively. After incubation, the colony-forming units within a statistically reasonable range (20–80) were counted.
# E. coli (ATCC 25922) = assay: Inactivation of E. coli by disinfectants (membrane filter enumeration, contact time 5 min); format: cell-based, Escherichia coli; settings: for log reduction at 115 µg/mL / EC (3-log inactivation) / log reduction at 475 µg/mL: Escherichia coli, ATCC25922, 5 min; for log reduction at 115 µg/mL: dose 115 mg L-1, read-out: Log (N/N0); for log reduction at 115 µg/mL / log reduction at 475 µg/mL: 5 min; for log reduction at 475 µg/mL: dose 475 mg L-1
# Description: as §1
# The impact of pH on the disinfection efficiencies of DBPs was examined. E. coli (ATCC 25922) was used as the test strain. The disinfection experiments were performed in 10 mM PBS solutions (pH 6.2, 7.2, and 8.2) with an initial E. coli concentration of 10^6‒10^7 cells per milliliter. To initiate the disinfection, a DBP was dosed with a bacteria suspension at a predetermined concentration. After the given contact time (5 min) at room temperature (22 ± 1 °C), the bacteria were enumerated following the membrane filter method. The bacteria concentrations in the 10 mM PBS solutions (pH 6.2, 7.2, and 8.2) without the addition of DBPs were used as controls.
# P. dumerilii embryos = assay: Developmental toxicity assay with P. dumerilii embryos, dilution factor of in-use concentration (EC50,DF), also after degradation in darkness; format: in vivo, Platynereis dumerilii
# Text: The DBP doses for 3-log E. coli reduction (pH 7.2) were set as the in-use concentrations, which were serially diluted and added to the P. dumerilii embryos at 12-h postfertilization. A dilution factor was defined as the ratio of the in-use concentration to the exposure concentration. Each exposure set contained a control sample (i.e., the embryos at 12-h postfertilization developed in seawater without the addition of DBPs). By 24-h postfertilization, normally developed embryos should have reached the first larval stage. An inverted stereomicroscope (×40 magnification) was used to observe the larvae. The normal development percentage was calculated as the ratio of normally developed embryos to total embryos. By plotting the curve of the normal development percentage versus the dilution factor, the EC50,DF value (i.e., the dilution factor corresponding to 50% of the normal development percentage of the control sample) was obtained using SigmaPlot 12. The developmental toxicity test was conducted in duplicate.
structure (smiles),measurement,setting,value
"Oc1ccc(I)cc1I [2,4-DIPh, 2,4-diiodophenol]",Ln (C/C0),[1]; 0 h,0
same,Ln (C/C0),[1]; 24 h,0.00447 and 0.004669
same,Ln (C/C0),[1]; 48 h,0.01674 and 0.0143
same,log reduction at 300 µg/mL,"S. aureus (ATCC 25923); pH 7.2, S. aureus, read-out: Log (N/N0)",4.49
same,log reduction at 115 µg/mL,"E. coli (ATCC 25922); pH 6.2, E. coli, pH 6.2",3.33
same,log reduction at 115 µg/mL,"E. coli (ATCC 25922); pH 7.2, E. coli, pH 7.2",2.77
same,log reduction at 115 µg/mL,"E. coli (ATCC 25922); pH 8.2, E. coli, pH 8.2",3.02
same,EC (3-log inactivation),"E. coli (ATCC 25922); pH 7.2, contact time 5 min, read-out: Dose for achieving 3-log inactivation of E. coli",112 µg/mL
same,E. coli inactivation rate constant k,"E. coli (ATCC 25922); pH 7.2, contact time 5 min",0.79 L mg‒1 h‒1
same,Normal development (%),P. dumerilii embryos; dilution factor 14.7221,3.475% and 5.221%
same,Normal development (%),P. dumerilii embryos; dilution factor 16.1943,15.5532% and 11.251%
same,Normal development (%),P. dumerilii embryos; dilution factor 17.0467,28.4871% and 30.5605%
same,Normal development (%),P. dumerilii embryos; dilution factor 17.9937,62.9083% and 58.6107%
same,Normal development (%),P. dumerilii embryos; dilution factor 19.0522,71.0249% and 62.3085%
same,Normal development (%),P. dumerilii embryos; dilution factor 21.5924,85.4546% and 82.7272%
"Oc1ccc(Cl)cc1Cl [2,4-DCPh, 2,4-Dichlorophenol]",Ln (C/C0),[1]; 0 h,0
same,Ln (C/C0),[1]; 24 h,0.008094 and 0.006005
same,Ln (C/C0),[1]; 48 h,0.007156 and 0.006397
same,log reduction at 300 µg/mL,"S. aureus (ATCC 25923); pH 7.2, read-out: Log (N/N0), S. aureus",0.626
same,log reduction at 475 µg/mL,"E. coli (ATCC 25922); pH 6.2, read-out: Log (N/N0), E. coli, pH 6.2",3.02
same,EC (3-log inactivation),"E. coli (ATCC 25922); pH 7.2, read-out: Dose for achieving 3-log inactivation of E. coli",472 µg/mL
same,log reduction at 475 µg/mL,"E. coli (ATCC 25922); pH 7.2, read-out: Log (N/N0), E. coli, pH 7.2",3.32
same,log reduction at 475 µg/mL,"E. coli (ATCC 25922); pH 8.2, read-out: Log (N/N0), E. coli, pH 8.2",3.29
same,E. coli inactivation rate constant k,"E. coli (ATCC 25922); pH 7.2, contact time 5 min",0.30 L mg‒1 h‒1
same,Normal development (%),P. dumerilii embryos; dilution factor 9.6524,0%
same,Normal development (%),P. dumerilii embryos; dilution factor 13.1623,7.691% and 7.509%
same,Normal development (%),P. dumerilii embryos; dilution factor 16.0873,35.5728% and 39.4272%
same,Normal development (%),P. dumerilii embryos; dilution factor 20.6836,55.5625% and 48.4375%
same,Normal development (%),P. dumerilii embryos; dilution factor 28.9571,80.2893% and 76.7107%
same,Normal development (%),P. dumerilii embryos; dilution factor 57.9141,81.6957% and 84.3043%
